Patent US20260240768A1, “PHARMACEUTICAL COMPOSITION COMPRISING NFL-TBS40-63 PEPTIDE, VARIANTS OR SALTS THEREOF AND ALANINE” (GLIOCURE, priority 2022, published 2026)
Where “and” joins values, the source holds several entries; their conditions need not be identical. Equal values may be shown once. Entries after “also recorded” stand apart in the source; their conditions may differ. Read-outs that look alike come from different tables or passages of the source. One block for each molecule: values may come before it. Where a SMILES comes first, the peptide text is derived from it. The star is where a group is joined. Biotin = O=C1N[C@H]2[C@H](CS[C@H]2CCCCC(=O)*)N1

How the values were obtained:
[1] = Filtration test (0.2 μm filter); format: physicochemical; settings: for effect on the presence of fibrils in NFL-TBS40-63 formulation: amino acid added instead of alanine
Protocol: Several formulations (containing NFL-TBS40-63 and various buffers, solubilizing and osmolarity adjusting agents) were tested for their aptitude to pass a 0.2 μm filter. […] The ease of filtration (manual pressure required) was recorded.
For grade 1 formulations, further filtration tests were performed with higher volumes of the test formulation, and a deliberately small filter area size, e.g. a 25 mm diameter with pores of 0.2 μm with 100 ml of the test formulation.

U-87 MG human GBM cells [2] = assay: MTS viability assay (mitochondrial activity); format: cell-based; settings: 72 hours, peptide in Clinic vehicle F28C1 compared with Glucose 5%
Protocol: (§1) Cells were seeded in 96-well plates at 1,000 per well for b.End3 murine endothelial cells and F98 rat GBM cells, and 5,000 cells and U-87 MG human GBM cells, and incubated for 24 hours at 37° C. and 5% CO2. Then, the culture media was removed and cells were treated for 72 hours at 37° C. and 5% CO2 with increasing concentrations (25, 50, 100 and 200 μM) of GC01-G5% (NFL-TBS40-63 peptide (GC01) partially solubilized with 5% glucose) or GC01.1 (NFL-TBS40-63 peptide (GC01) fully solubilized in the formulation of the invention F28C1), or with 1 μg/mL of colchicine, or the 5% glucose solution and the Clinic vehicle, diluted in fresh media. Cell viability was measured using the MTS viability assay (ab197010-Abcam; Paris, France). After rinsing the cells with 1×DPBS (Dulbecco's Phosphate Buffered Saline-Gibco; Dardilly, France), 20 μL of MTS reagent was added to each well for 2 hours. The number of living cells is directly proportional to the absorbance measured by the amount of light absorbance at 490 nm in a SpectraMax M2 multi-scanning spectrophotometer (Molecular Devices; San Jose, California, USA).

[3] = system: b.End3 murine endothelial cells; assay: MTS viability assay (mitochondrial activity); format: cell-based; settings: 72 hours, peptide in Clinic vehicle F28C1 compared with Glucose 5%
Protocol: as §1

[4] = Transmission Electron Microscopy (TEM) of fibrils; format: physicochemical
Protocol: Transmission Electron Microscopy imaging of various formulations was performed using a Jeol JEM-1400 instrument. Sample preparation was as follows: one drop of the liquid to be examined was deposited onto a TEM gird and allowed to settle for ~1 minute. Excess liquid was then absorbed with blotting paper, and one drop of a 2% solution of uranyl acetate was deposited on the grid. After ~2 minutes the excess solution was absorbed with blotting paper, and the grid was rinsed twice, using with a drop of water each time. The grid was then dried, prior to examination in the TEM. This technique allowed visualization of the fibrils of NFL-TBS40-63 peptide in the various formulations and in water.

U-87 MG cells = assay: Calcein/PI flow cytometry after passage through the endothelial monolayer; format: cell-based, human; settings: Transwell conditions + U-87 MG cells, 24 h treatment + 48 hours
Protocol: After 24 hours of treatment, the endothelial cell monolayer was removed, and the U-87 MG cells were incubated at 37° C. for an additional 48 hours. At this time, U-87 MG cells were collected as previously described in section 1.4. To evaluate cell viability were stained with 1 μM of Calcein green (Thermo Fisher Scientific; Massachusetts, USA) for 30 min at room temperature in the dark. Then re-suspended in Propidium Iodide and analyzed by flow cytometry. 10,000 cells were measured for each experiment.

U-87 MG human GBM cells [5] = assay: Immunocytochemistry of tubulin; format: cell-based; settings: 100 μM, 48 hours
Protocol: (§2) To visualize the treatment internalization, 20,000 and 35,000 cells per well for b.End3 murine endothelial cells and U-87 MG human GBM cells, respectively, were seeded in 24-well plates containing one coverslip previously coated with poly (d) lysine 0.1 mg/ml per well and washed three times with 1×DPBS (Sigma-Aldrich; Saint-Louis, USA) and incubated for 24 hours at 37° C. and 5% CO2. Then, the cells were incubated with 100 μM of GC01-G5% (NFL-TBS40-63 peptide (GC01) peptide partially solubilized with 5% glucose) or 100 μM of GC01.1 (NFL-TBS40-63 peptide (GC01) fully solubilized in the formulation of the invention F28C1), or with 1 μg/mL of colchicine for 48 hours at 37° C. At the end of the incubation time, cells were washed three times with 1×DPBS and fixed with 4% paraformaldehyde (15714-Delta microscopies; Mauressac, France) for 10 min at room temperature. Then, treated cells were permeabilized with 0.2% triton X-100 (T9284—Sigma-Aldrich; Saint-Louis, USA) for 10 min, and blocked with 5% bovine serum albumin (A7030—Sigma-Aldrich; Saint-Louis, USA) for 45 min at room temperature. Cells were co-incubated with a mouse anti-a tubulin (ab7750-Abcam; Paris, France) and a rabbit anti-βIII tubulin antibodies at 1:250 (T2200—Sigma-Aldrich; Saint-Louis, USA) overnight at 4° C. […]

[6] = system: b.End3 murine endothelial cells; assay: Immunocytochemistry of tubulin; format: cell-based; settings: 100 μM, 48 hours
Protocol: as §2

[7] = Scanning Electron Microscopy (SEM) of dry powder; format: physicochemical; settings: Lot AW18189D and Lot HF44004B
Protocol: Scanning Electron Microscopy of NFL-TBS40-63 peptide dry powder was performed using an Jeol 6301F instrument. In brief, NFL-TBS40-63 peptide was lightly sprinkled onto double sided tape fixed to a SEM stub. Excess powder was shaken/tapped off, so as to leave a very thin layer of powder on the stub, which was then sputter coated with an ~10 nm layer of platinum, prior to observation. This technique allows visualization of the fibrils in the dry NFL-TBS40-63 peptide powder.

[8] = system: neuroblastoma and glioblastoma cell lines; settings: WO 2011/073207 and Bocquet et al. (2009); cited from earlier work
[9] = Dynamic Light Scattering (DLS); format: physicochemical
Protocol: FIG. 4A-C: DLS graphs showing the effect of the heating of the formulation containing L-alanine at different temperatures before adding NFL-TBS40-63 peptide followed by mixing for 1 h30 at A. room temperature (RT); B. 30-35° C., and C. 40-45° C. […] Low attenuator values (e.g. ≤8) indicate that there were substantially more particles in the sample.
Dynamic Light Scattering (DLS) measurements were performed on the several formulations of grade 1 and 2 using a Malvern Nano-S instrument. Although the technique is not quantitative, it provided important information on the relative size of the objects (fibrils) present in the various formulations, throughout out the process of dissolution.
The attenuator value also gives a measure of the quantity of particles present: the higher the attenuator value, the less particles present.

[10] = Visual dissolution test / solubility of the peptide; format: physicochemical
[11] = system: U-87 MG cells implanted in the brains of BALB/c Nude mice; assay: In vivo U-87 MG brain tumor in nude mice, tolerance and MALDI-TOF imaging; settings: intravenous injection in the formulation of the invention, 1 hour after the final injection
Protocol: Seven-week-old female Balb/c nude mice (Janvier, France) were housed at the university animal facility (Service Commun d'Animalerie Hospitalo-Universitaire—Université d'Angers, France). Animals had free access to water and food throughout the experiment and their behavior and body weight were constantly monitored. All procedures involving animals, were conducted in accordance with protocols approved by ethical committee of the University of Angers and the regional ethics committee on animal experimentations.
Mice were anesthetized by intraperitoneal injection of a mixture of ketamine 10% (80 mg/kg) and xylazine 2% (10 mg/kg). […] The injection coordinates were 2.1 mm lateral, 0.5 mm posterior from the bregma and 2.5 mm deep from the outer border of the cranium. […] Animals were sacrificed 1 hour after the last injection, and brains were removed and frozen in nitrogen vapors.
The MALDI-TOF MS analysis was performed on a Bruker BIFLEX III mass spectrometer (Bruker Daltonics; Germany) equipped with a nitrogen laser (337 nm wavelength, 3 ns laser pulse duration) with reflection and in the positive ion mode. The MS data were acquired over a mass range of m/z 2714 Da with pixels of 100 μm diameter but the capturing area is of 40 μm per pixel. Data have been normalized by Root Mean Square and the image has been smoothed by reducing background noise. […]

[12] = Clarity test - degree of opalescence; format: physicochemical
Protocol: For preparations where the NFL-TBS40-63 peptide appeared to be visually dissolved (following the visual dissolution test), the clarity (opalescence) of the preparation was assessed, via visual inspection after placing the colourless glass tube close to a white light source. The degree of opalescence was a very useful predictor of a given preparation's ability to pass or block a sterilizing filter.

SMILES: NC(=O)CC[C@H](N)C(=O)O [L-glutamine]
effect on the presence of fibrils in NFL-TBS40-63 formulation [1]: did not have any positive effect

SMILES: CC[C@H](C)[C@H](N)C(=O)O [L-isoleucine]
effect on the presence of fibrils in NFL-TBS40-63 formulation [1]: did not have any positive effect

SMILES: CC(C)C[C@H](N)C(=O)O [L-leucine]
effect on the presence of fibrils in NFL-TBS40-63 formulation [1]: did not have any positive effect

More lines, main results first:

effect on the presence of fibrils in NFL-TBS40-63 formulation [1]: did not have any positive effect
SMILES: CSCC[C@H](N)C(=O)O [L-methionine]

effect on the presence of fibrils in NFL-TBS40-63 formulation [1]: did not have any positive effect
SMILES: CC(C)[C@H](N)C(=O)O [L-valine]

passage of 0.2 μm sterilizing filter ([1]; 1 mg/ml in water): very quickly block
behaviour of pre-filter and sterilizing filters ([1]; 3 mg/ml in G5% (5% glucose in water for injection)): tended to clog up quite quickly
filter grade ([1]; F28C1 with 25 mM L-alanine, 1.5 mg/mL peptide, 1 mL, 13 mm 0.2 μm filter): 2
filter grade ([1]; F28C1 with 50 mM L-alanine, 1.5 mg/ml peptide, 5 mL, 13 mm 0.2 μm filter): 1 to 2
filter grade ([1]; F28C1 with 112 mM L-alanine, 1.5 mg/ml peptide, 1 mL, 13 mm 0.2 μm filter): 2
filter grade ([1]; F28C1 with 225 mM L-alanine, 1.5 mg/ml peptide, 1 mL, 13 mm 0.2 μm filter): 2 to 3 and 3
filter grade ([1]; F28C1 with 670 mM L-alanine, 0.5 mg/mL peptide, 13 mm 0.2 μm filter): 3
sterilizing filtration through 0.2 μm ([1]; micronized powder in F28C1, after 0.45 μm pre-filtration): successful
filter grade ([1]; with no alanine): 3
length of sub-visible fibrillar structures ([4]; self-association): ≤ 2 μm
structures in dry powder by SEM [7]: fibril-like structures
DLS single peak, particle size ([9]; micronized powder in F28C1, 1.5 hours mixing at ambient temperature (20° C.), prior to pre-filtration): around 300 nm
DLS attenuator value ([9]; solution F28C heated to 40-45° C. before adding the peptide, mixing 1h30): 10
dissolution of the peptide ([10]; 3 mg/ml in G5% (5% glucose in water for injection), even after heating 1.5 h at 40 to 45° C.): less well dissolved
solubility at 2 min ([10]; 50 mM glutamine and 50 mM arginine, read-out: solubility): < 800 µg/mL
precipitation ([10]; in the presence of sodium or potassium ions): tends to irreversibly precipitate
solubility at 2 min ([10]; in water, read-out: intrinsic aqueous solubility): < 2500 µg/mL
solubility in commonly used parenteral buffer systems ([10]; nearly all commonly used parenteral buffer systems): insoluble
opalescence of the solution ([12]; F28C1 with 25 mM L-alanine, 1.5 mg/mL peptide): slightly opalescent
opalescence of the solution ([12]; F28C1 with 50 mM L-alanine, 1.5 mg/ml peptide): very slightly opalescent
opalescence of the solution ([12]; F28C1 with 112 mM L-alanine, 1.5 mg/ml peptide): slightly opalescent
opalescence of the solution ([12]; F28C1 with 225 mM L-alanine, 1.5 mg/ml peptide): slightly opalescent
opalescence of the solution ([12]; F28C1 with 670 mM L-alanine, 0.5 mg/mL peptide): slightly opalescent
SMILES: CC(C)C[C@H](NC(=O)[C@H](CO)NC(=O)[C@H](CO)NC(=O)[C@H](CO)NC(=O)[C@@H](NC(=O)[C@@H]1CCCN1C(=O)[C@H](C)NC(=O)[C@H](CO)NC(=O)[C@H](Cc1ccc(O)cc1)NC(=O)[C@H](CO)NC(=O)[C@H](CO)NC(=O)[C@H](Cc1ccc(O)cc1)NC(=O)CCCC[C@@H]1SC[C@@H]2NC(=O)N[C@@H]21)C(C)C)C(=O)N[C@@H](CO)C(=O)N[C@H](C(=O)N[C@@H](CCCNC(=N)N)C(=O)N[C@@H](CCCNC(=N)N)C(=O)N[C@@H](CO)C(=O)N[C@@H](Cc1ccc(O)cc1)C(=O)N[C@@H](CO)C(=O)N[C@@H](CO)C(=O)N[C@@H](CO)C(=O)N[C@@H](CO)C(=O)NCC(=O)N[C@@H](CO)C(N)=O)C(C)C [NFL-TBS40-63 peptide] (Biotin-YSSYSAPVSSSLSVRRSYSSSSGS-NH2; N-terminus and C-terminus assumed)
cytotoxicity profile (cell viability, MTS) (U-87 MG human GBM cells [2]): retains its properties
cytotoxicity profile (cell viability, MTS) [3]: retains its properties
number and size of fibrils by TEM ([4]; composition containing 50 mM of L-alanine and 1 mg/mL peptide): significantly reduced; also recorded: virtually no fibrils were visible
fibrillar structures by TEM ([4]; in water, 1 mg/mL and 0.27 mg/ml): fibrillar structure; also recorded: fibril structure
percentage of dead cells (U-87 MG cells; listed as Biot-NFL): 16.6±5.4%
percentage of dead cells (U-87 MG cells; listed as GC01): 30.1±7.9%
effect on tubulin (immunostaining) (U-87 MG human GBM cells [5]): alteration of tubulin
effect on tubulin (immunostaining) [6]: alteration of tubulin
inhibition of proliferation in vitro [8]: able to inhibit the proliferation
peptide in the tumor by MALDI-TOF imaging [11]: accumulation
